Source: paper PMC6176658, “Experimentally Validated Pharmacoinformatics Approach to Predict hERG Inhibition Potential of New Chemical Entities” (Frontiers in Pharmacology, 2018)

Biological target: T1, hERG (Kv11.1) potassium channel (Homo sapiens, UniProt Q12809)
T1 construct: gene KCNH2
Experiment: cell-based

T1 sequence (Q12809 whole entry): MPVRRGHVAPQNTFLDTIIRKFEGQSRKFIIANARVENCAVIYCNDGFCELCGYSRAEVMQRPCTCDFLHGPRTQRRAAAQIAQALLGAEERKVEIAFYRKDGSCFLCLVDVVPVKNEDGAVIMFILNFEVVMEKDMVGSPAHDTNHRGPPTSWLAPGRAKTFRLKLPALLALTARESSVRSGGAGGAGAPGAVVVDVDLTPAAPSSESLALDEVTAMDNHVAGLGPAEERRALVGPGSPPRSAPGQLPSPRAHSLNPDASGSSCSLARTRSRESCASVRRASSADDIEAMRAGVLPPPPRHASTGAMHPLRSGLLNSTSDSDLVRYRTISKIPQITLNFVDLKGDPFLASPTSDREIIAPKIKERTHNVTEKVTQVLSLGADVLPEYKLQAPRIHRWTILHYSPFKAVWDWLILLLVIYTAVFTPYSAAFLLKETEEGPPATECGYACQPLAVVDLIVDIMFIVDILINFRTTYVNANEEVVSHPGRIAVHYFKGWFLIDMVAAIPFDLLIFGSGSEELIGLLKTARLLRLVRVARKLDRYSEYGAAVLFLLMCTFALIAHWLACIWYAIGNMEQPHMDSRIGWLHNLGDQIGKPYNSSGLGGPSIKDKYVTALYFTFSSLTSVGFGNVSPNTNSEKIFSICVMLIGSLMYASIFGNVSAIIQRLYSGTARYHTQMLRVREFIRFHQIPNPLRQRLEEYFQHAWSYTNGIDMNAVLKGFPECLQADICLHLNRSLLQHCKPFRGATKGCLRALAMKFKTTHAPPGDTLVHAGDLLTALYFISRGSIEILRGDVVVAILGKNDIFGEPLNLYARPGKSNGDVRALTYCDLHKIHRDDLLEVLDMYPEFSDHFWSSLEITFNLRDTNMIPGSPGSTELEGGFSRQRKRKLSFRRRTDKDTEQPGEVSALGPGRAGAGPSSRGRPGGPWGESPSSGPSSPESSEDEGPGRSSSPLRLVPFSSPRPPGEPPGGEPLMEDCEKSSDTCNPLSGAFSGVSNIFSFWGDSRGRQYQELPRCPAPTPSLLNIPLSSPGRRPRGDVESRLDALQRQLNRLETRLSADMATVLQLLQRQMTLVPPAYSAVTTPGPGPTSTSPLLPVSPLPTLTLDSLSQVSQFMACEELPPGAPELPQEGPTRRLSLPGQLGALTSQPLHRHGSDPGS

CCOC(=O)c1cc(C)n(-c2ccccc2)c1C [OSM-S-31]
IC50: 3.89 µM
